≈ marks a conversion by molar mass, not a printed value. Like-named read-outs stand apart in the source and are kept apart here.
What was measured:
BALB/3T3 cells = assay: Cytotoxicity by live imaging (Hoechst 33342 / propidium iodide); type: cell-based; conditions: BALB/3T3 cells; 0, 12.5, 25, 50, 100 µM; imaging at 24 h and 48 h; read-out: Cytotoxicity Balb3T3 CC50
Protocol: (§1) The cytotoxicity of the compounds to BALB/3T3 cells was determined using live imaging following both Hoechst 33342 and propidium iodide staining. Briefly, BALB/3T3 cells were seeded in a 384-well plate and 24 h later, the compounds were added (0, 12.5, 25, 50, and 100 µM) to the culture medium, as well as Hoechst 33342 and propidium iodide (PI). Then, 24 h and 48 h after the compounds were added, live imaging was performed using an In Cell Analyzer 6000 (STP GE Healthcare, Glascow, UK). The cytotoxicity was defined based on the ratio of the population of dead or dying cells (propidium iodide staining) to the total cell population (Hoechst staining), as determined using Columbus software 2.9.1 (PerkinElmer Informatics, WA, USA). The compounds were tested in triplicate. Carfilzomib (500, 250, 140, and 60 nM) was used as the positive control in this assay.

M. tuberculosis H37Rv = assay: microbe, parasite or virus in culture; type: cell-based, Mycobacterium tuberculosis; conditions: 7 days incubation, resazurin readout, tested 300 to 2.3 µM, read-out: MIC90 M. tuberculosis (REMA)
[1] = test system: Staphylococcus aureus (SH1000); assay: microbe, parasite or virus in culture; type: cell-based; conditions: 5 h incubation, resazurin readout, tested 300 to 2.3 µM, read-out: MIC90 S. aureus (REMA)
[2] = test system: M. tuberculosis H37Rv expressing GFP (H37Rv::pJKD6); assay: microbe, parasite or virus in culture; type: cell-based, Mycobacterium tuberculosis; conditions: for MIC: Mycobacterium tuberculosis, H37RV, 168 h, read-out: MIC98 M. tuberculosis (GFP)
[3] = Kinetic solubility in PBS by LC-MS/MS; type: physicochemical
Protocol: The kinetic solubility was determined using LC–MS/MS analysis in PBS at pH 7.4. Briefly, a 10 mM 100% DMSO solution of the compound was diluted 50-fold either in PBS at pH 7.4 (in triplicate) or in DMSO in polypropylene tubes (n = 3 for PBS and n = 6 for DMSO). The tubes were gently shaken for 24 h at 21 °C. Then, the three PBS tubes and three of the six DMSO tubes were centrifuged for 5 min at 4000 rpm and filtered over 0.45 μm filters (Millex-LH Millipore). Then, 40 μL of each solution was diluted in 160 μL of MeCN and 40 µL of Milli-Q water and transferred to matrix tubes for the LC–MS/MS analysis. The solubility was determined according to the following formula: Solubility (μM) = (AUC (filtered PBS)/AUC (not filtered DMSO)) × 200. The test was validated if (AUC (not filtered DMSO) − AUC (filtered DMSO))/AUC (not filtered DMSO) ≤ 10%.

[4] = Cytotoxicity by live imaging (Hoechst 33342 / propidium iodide); type: cell-based; conditions: mouse
Protocol: as §1

M. tuberculosis strains = test system: M. tuberculosis strains; design: method as in PMID 9747541; conditions: cited from earlier work
[5] = Mycobacterium tuberculosis, H37RV, 168 h
[6] = 21 °C, pH 7.4, aqueous buffer, kinetic from dmso stock

| Molecule | CC50 (BALB/3T3 cells) | MIC90 (M. tuberculosis H37Rv) | MIC90 [1] | MIC98 M. tuberculosis (GFP) [2] | solubility at 24 h ([3]; kinetic solubility, PBS pH 7.4, 24 h at 21 °C, from 10 mM DMSO solution diluted 50-fold, read-out: Solubility) | CC50 [4] | minimum inhibitory concentration (MIC) against M. tuberculosis strains (M. tuberculosis strains) | MIC90 (M. tuberculosis H37Rv; [5]) | MIC90 ([1]; Staphylococcus aureus) | MIC [2] | solubility at 24 h [3, 6] | CC50 ([4]; BALB/3T3 cells, 0, 12.5, 25, 50, 100 µM, imaging at 24 h and 48 h, read-out: Cytotoxicity Balb3T3 CC50) | solubility at 24 h ([3]; aqueous buffer, kinetic from dmso stock, kinetic solubility, PBS pH 7.4, 24 h at 21 °C, from 10 mM DMSO solution diluted 50-fold, read-out: Solubility) |
| --- | --- | --- | --- | --- | --- | --- | --- | --- | --- | --- | --- | --- | --- |
| tert-butyl-N-hydroxy-N-[(1S,2S,4R,7R,11S)-4-methyl-8,12-dimethylene-13-oxo-3,14-dioxatricyclo[9.3.0.02,4]tetradecan-7-yl]carbamate [Compound 12] | > 100 µM | 38 µM | >300 µM | 19 to 38 µM | 176 µM | – | – | – | – | – | – | – | – |
| C=C1C(=O)O[C@H]2[C@H]1CC/C(C)=C/CC[C@@]1(C)O[C@@H]21 [Compound 1, Parthenolide] | – | – | – | – | – | > 100 µM | 16 µg/mL (≈ 64.4 µM) | 9.4 to 19 µM (≈ 2.33 to 4.72 µg/mL) | > 300 µM | 9.4 to 19 µM (≈ 2.33 to 4.72 µg/mL) | 135 µM (≈ 33.5 µg/mL) | – | – |
| C=C1CC[C@H]2C(=C)C(=O)O[C@@H]2[C@@H]2O[C@]2(C)CC[C@H]1N(O)C(=O)OCC(Cl)(Cl)Cl [Compound 15, 2,2,2-trichloroethyl-N-hydroxy-N-[(1S,2S,4R,7R,11S)-4-methyl-8,12-dimethylene-13-oxo-3,14-dioxatricyclo[9.3.0.02,4]tetradecan-7-yl]carbamate] | – | – | – | – | – | 12.5 µM | – | 38 µM (≈ 17.3 µg/mL) | > 300 µM | 19 µM (≈ 8.64 µg/mL) | 184 µM (≈ 83.7 µg/mL) | – | – |
| C=C1CC[C@H]2C(=C)C(=O)O[C@@H]2[C@@H]2O[C@]2(C)CC[C@H]1N(O)C(=O)Oc1ccc(F)cc1 [Compound 16, (4-fluorophenyl)-N-hydroxy-N-[(1S,2S,4R,7R,11S)-4-methyl-8,12-dimethylene-13-oxo-3,14-dioxatricyclo[9.3.0.02,4]tetradecan-7-yl]carbamate] | – | – | – | – | – | – | – | 75 µM (≈ 31.3 µg/mL) | > 300 µM | 38 to 75 µM (≈ 15.9 to 31.3 µg/mL) | – | 25 µM | 182 µM (≈ 76 µg/mL) |

Reference: publication PMC10744032, “Regioselective and Stereoselective Synthesis of Parthenolide Analogs by Acyl Nitroso-Ene Reaction and Their Biological Evaluation against Mycobacterium tuberculosis” (International Journal of Molecular Sciences, 2023)
